Experiment [1] addresses NA of A/Anhui/1/2013 (H7N9) (Influenza A virus (A/Anhui/1-BALF_RG1/2013(H7N9)), UniProt A0A024E3Q2). It counts as cell-based.
The target of experiment [2] is NA of A/Vietnam/1203/2004 (H5N1) (Influenza A virus (A/Viet Nam/1203/2004(H5N1)), UniProt Q6DPL2). Briefly: cell-based.

One may read the IC50 as the midpoint of a concentration-inhibition curve. For `O=C(O)c1ccc(N2C(=O)CCC2(CO)CO)c(Nc2nnc(C3CCCCC3)[nH]2)c1` [compound 5], the 50% inhibitory concentration (IC50) in experiment [1] and in experiment [2] was greater than 480 µM each time.

(Values after paper PMC6940900, “Antiviral Activity of Benzoic Acid Derivative NC-5 Against Influenza A Virus and Its Neuraminidase Inhibition” (International Journal of Molecular Sciences, 2019).)
